Values of other authors in patent US8048850B2, “Covalent conjugates between artemisinin-related endoperoxides and iron-carrying proteins and methods of use” (University of Washington, priority 2002, dated 2011).

Conditions: cancer patient; oral dose of 50 mg per day; intramuscular dose of 60 mg/day; period of 9 months

## C[C@H]1[C@H](OC(=O)CCC(=O)O)O[C@@H]2O[C@@]3(C)CC[C@H]4[C@H](C)CC[C@@H]1[C@@]24OO3 [artesunate]
  adverse side effects: No apparent adverse side effects
